Experimental data taken from paper PMC11123012, “Bioactive Alkaloids from the Mangrove-Derived Fungus Nigrospora oryzae SYSU-MS0024” (Marine Drugs, 2024).
pEC50, pIC50: −log10 of the molar value.

Legend:
BV-2 cells = test: LPS-induced NO production in BV-2 cells; assay type: cell-based; settings: mean ± SD of five replicates
Method: (§1) NO determination: all compounds were examined for the effect on the release of NO by BV-2 cell lines using the method described previously. All experiments were carried out in five replicates. Microglia Viability Assay: The effects of compounds 1–11 on the viability of BV2 microglia were carried out by MTT assay. BV2 microglia were first seeded at a density of 4000 cells per well for 12 or 24 h using a 96-well plate and then treated with compounds at the concentrations of 1– 100 μmol/L for another 36 h. After that, cells were incubated with MTT (0.5 mg/mL) in a 5% CO2 incubator at 37 °C. Three hours later, the medium was removed, and DMSO (150 μL) was added into each well to dissolve formazan crystals. The […] absorbances were measured at 570 nm using an ELISA microplate reader (Biotek, Winooski, VT, USA).

AChE = AChE (Homo sapiens, UniProt P22303); test: biochemical; settings: three replicates; read-out: AChE inhibitory activity IC50
Method: All compounds were examined for inhibitory activity against AChE using an optimized colorimetric method described previously. All tests were carried out in three replicates. Donepezil hydrochloride was taken as the positive control.

BV2 microglia = test: Microglia viability assay (MTT); assay type: cell-based; settings: BV-2 cells, concentration of 100.0 μmol/L
Method: as §1

[1] = DPPH free radical scavenging assay; settings: three replicates, read-out: antioxidant activity EC50
Method: An optimized colorimetric method described previously was used to evaluate the DPPH free radical scavenging activities of compounds 1–11 [37]. All tests were measured in three replicates. Vitamin C was taken as a positive control.

influenza A virus H1N1 = system: influenza A virus H1N1; parameters: method as in PMID 34052697; settings: read-out: anti-influenza A virus H1N1 activity IC50; cited from earlier work

AChE, sequence (P22303 32-614): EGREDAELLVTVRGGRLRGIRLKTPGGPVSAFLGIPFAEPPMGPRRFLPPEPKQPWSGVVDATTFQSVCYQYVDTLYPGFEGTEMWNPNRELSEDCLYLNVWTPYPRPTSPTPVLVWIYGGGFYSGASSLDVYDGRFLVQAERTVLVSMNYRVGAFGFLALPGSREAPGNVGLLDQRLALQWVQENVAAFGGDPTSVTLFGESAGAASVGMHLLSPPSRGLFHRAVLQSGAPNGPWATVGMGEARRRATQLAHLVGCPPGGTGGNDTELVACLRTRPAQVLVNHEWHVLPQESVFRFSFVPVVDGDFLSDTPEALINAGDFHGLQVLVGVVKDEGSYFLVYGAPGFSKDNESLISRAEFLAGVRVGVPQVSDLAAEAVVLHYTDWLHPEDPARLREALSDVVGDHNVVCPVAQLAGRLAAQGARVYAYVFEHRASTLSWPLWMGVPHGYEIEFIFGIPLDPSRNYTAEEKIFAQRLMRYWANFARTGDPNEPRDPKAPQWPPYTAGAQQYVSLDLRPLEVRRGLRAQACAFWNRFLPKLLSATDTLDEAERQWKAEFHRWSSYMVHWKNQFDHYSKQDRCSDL

CC(O)C12CCC(=O)N1c1ccccc1CO2 (centres unmarked) [Compound 2, Nigrosporine B]
NO accumulation induced by LPS (BV-2 cells; compound at 20 μmol/L): 47.2 ± 0.2 ng/mL | NO accumulation induced by LPS (BV-2 cells; compound at 50 μmol/L): 41.7 ± 0.4 ng/mL | NO accumulation induced by LPS (BV-2 cells; compound at 100 μmol/L): 21.8 ± 0.1 ng/mL | pIC50 (AChE): 3.98 | cytotoxicity (BV-2 cell viability) (BV2 microglia): without cytotoxicity

CC(=O)Nc1ccccc1O [Compound 5, N-(2-hydroxyphenyl)-acetamide]
pEC50 [1]: 3.78

O=C1O[C@H]([C@@H](O)CO)C(O)=C1O [Vitamin C, reference compound]
pEC50 [1]: 3.84

CC[C@@H](C)C1=C2NC(=O)[C@@](O)(C/C(=C\C=O)OC)C(=O)N2[C@H](C(C)C)C(=O)N1 [deg-pyrasplorine B]
pIC50 (influenza A virus H1N1): 4.30
